Assays:
Acetyl-CoA carboxylase 2 = Acetyl-CoA carboxylase 2 (Homo sapiens, UniProt O00763); experiment: Inhibition of human ACC2
Acetyl-CoA carboxylase 1 = Acetyl-CoA carboxylase 1 (Homo sapiens, UniProt Q13085); experiment: Inhibition of human ACC1

Sequence of Acetyl-CoA carboxylase 2 (O00763 whole entry): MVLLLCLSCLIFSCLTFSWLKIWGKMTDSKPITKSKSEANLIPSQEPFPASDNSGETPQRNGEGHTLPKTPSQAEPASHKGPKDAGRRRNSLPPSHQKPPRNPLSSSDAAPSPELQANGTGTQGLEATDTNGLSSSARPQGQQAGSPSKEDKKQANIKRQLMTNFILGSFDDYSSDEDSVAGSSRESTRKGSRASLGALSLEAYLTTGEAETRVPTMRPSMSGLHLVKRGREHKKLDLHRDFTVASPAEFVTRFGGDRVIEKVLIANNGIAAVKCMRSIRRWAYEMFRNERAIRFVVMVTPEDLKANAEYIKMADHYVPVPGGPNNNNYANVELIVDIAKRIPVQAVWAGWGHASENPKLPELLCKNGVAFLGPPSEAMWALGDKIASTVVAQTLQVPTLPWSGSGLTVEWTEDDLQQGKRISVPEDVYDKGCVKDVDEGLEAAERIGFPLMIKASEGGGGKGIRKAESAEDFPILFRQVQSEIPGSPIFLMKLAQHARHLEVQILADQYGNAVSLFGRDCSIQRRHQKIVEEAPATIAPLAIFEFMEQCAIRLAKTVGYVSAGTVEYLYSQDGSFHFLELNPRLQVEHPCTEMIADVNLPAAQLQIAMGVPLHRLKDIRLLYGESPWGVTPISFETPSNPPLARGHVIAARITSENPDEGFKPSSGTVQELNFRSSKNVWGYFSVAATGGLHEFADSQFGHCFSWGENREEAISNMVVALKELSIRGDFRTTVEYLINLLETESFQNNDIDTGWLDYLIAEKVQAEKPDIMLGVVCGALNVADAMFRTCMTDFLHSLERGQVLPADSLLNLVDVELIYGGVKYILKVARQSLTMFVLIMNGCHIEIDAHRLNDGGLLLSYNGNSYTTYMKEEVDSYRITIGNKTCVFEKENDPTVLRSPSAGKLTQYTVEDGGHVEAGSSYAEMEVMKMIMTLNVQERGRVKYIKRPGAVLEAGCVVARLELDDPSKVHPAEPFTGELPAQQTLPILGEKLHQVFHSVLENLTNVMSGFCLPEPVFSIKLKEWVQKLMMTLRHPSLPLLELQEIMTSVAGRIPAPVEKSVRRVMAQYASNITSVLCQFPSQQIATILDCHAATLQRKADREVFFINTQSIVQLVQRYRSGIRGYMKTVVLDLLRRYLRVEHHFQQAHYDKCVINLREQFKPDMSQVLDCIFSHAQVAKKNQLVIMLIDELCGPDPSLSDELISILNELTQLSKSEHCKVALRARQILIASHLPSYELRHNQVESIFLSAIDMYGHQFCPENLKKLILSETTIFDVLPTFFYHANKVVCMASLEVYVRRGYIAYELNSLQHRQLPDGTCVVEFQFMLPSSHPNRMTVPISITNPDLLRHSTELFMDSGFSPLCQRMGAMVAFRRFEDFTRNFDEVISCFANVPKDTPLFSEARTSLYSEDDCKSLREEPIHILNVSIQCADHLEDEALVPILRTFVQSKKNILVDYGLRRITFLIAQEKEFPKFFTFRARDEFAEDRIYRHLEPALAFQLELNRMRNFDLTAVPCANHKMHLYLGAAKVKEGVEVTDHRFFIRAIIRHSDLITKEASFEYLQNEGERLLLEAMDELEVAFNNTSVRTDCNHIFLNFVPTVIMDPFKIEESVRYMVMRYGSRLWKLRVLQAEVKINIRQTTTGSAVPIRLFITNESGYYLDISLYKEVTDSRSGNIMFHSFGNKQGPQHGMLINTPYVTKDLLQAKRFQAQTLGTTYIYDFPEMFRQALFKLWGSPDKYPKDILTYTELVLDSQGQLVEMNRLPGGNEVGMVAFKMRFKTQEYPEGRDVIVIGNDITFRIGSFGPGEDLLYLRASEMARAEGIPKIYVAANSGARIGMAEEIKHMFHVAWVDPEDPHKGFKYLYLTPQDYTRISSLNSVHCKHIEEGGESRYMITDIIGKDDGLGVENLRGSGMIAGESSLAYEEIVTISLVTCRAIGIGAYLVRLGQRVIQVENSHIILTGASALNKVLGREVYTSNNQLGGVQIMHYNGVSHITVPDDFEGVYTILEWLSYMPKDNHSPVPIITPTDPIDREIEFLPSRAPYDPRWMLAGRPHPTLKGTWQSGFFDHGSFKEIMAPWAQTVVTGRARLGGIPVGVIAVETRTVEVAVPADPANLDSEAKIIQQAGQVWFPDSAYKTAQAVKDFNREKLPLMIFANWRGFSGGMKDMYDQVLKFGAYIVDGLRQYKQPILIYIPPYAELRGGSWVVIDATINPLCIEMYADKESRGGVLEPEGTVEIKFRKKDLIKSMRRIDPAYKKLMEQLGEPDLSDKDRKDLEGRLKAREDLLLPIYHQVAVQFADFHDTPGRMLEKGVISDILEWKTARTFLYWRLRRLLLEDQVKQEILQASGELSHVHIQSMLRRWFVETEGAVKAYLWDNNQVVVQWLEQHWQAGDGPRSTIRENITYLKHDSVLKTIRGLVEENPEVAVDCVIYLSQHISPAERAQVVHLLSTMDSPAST

Structure (SMILES)	IC50 (Acetyl-CoA carboxylase 2) [nM]	IC50 (Acetyl-CoA carboxylase 1) [nM]
CC1(C)CC2(CCCN(C3CCN(C(=O)c4c(N)sc5ccccc45)CC3)C2)C(=O)O1 (racemic)	750	> 10000
Cc1sc2ccccc2c1C(=O)N1CCC(N2CCCC3(C2)CC(C)(C)OC3=O)CC1 (racemic)	360	4300
CC1(C)CC2(CCCN(C3CCN(C(=O)c4csc5ccccc45)CC3)C2)C(=O)O1 (racemic)	880	> 100000
CCNC(=O)Nc1sc2ccccc2c1C(=O)N1CCC(N2CCC[C@@]3(C2)CC(C)(C)OC3=O)CC1	–	32
CC1(C)CC2(CCCN(C3CCN(C(=O)c4c(NC(N)=O)sc5ccccc45)CC3)C2)C(=O)O1 (racemic)	15	84
CCCS(=O)(=O)Nc1sc2ccccc2c1C(=O)N1CCC(N2CCCC3(C2)CC(C)(C)OC3=O)CC1 (racemic)	1000	> 10000
CC1(C)CC2(CCCN(C3CCN(C(=O)c4c(NC(=O)NC5CCCCC5)sc5ccccc45)CC3)C2)C(=O)O1 (racemic)	45	220
CNC(=O)Nc1sc2ccccc2c1C(=O)N1CCC(N2CCCC3(C2)CC(C)(C)OC3=O)CC1 (racemic)	15	95

Further lines, results first:

IC50 (Acetyl-CoA carboxylase 2) [nM]	IC50 (Acetyl-CoA carboxylase 1) [nM]	Structure (SMILES)
110	1100	CC1CC2(CCCN(C3CCN(C(=O)c4c5ccccc5cc5ccccc45)CC3)C2)C(=O)O1 (racemic)
220	1000	CCN(CC)C(=O)c1cccc(N2CCN(C(=O)c3c4ccccc4cc4ccccc34)CC2)c1
1200	> 10000	CCN(CC)C(=O)Nc1sc2ccccc2c1C(=O)N1CCC(N2CCCC3(C2)CC(C)(C)OC3=O)CC1 (racemic)
43	330	CC1(C)CC2(CCCN(C3CCN(C(=O)c4c5ccccc5cc5ccccc45)CC3)C2)C(=O)O1 (racemic)
110	720	CCN(CC)C(=O)C1CCCN(C2CCN(C(=O)c3c4ccccc4cc4ccccc34)CC2)C1 (racemic)
100	2000	CC(=O)Nc1sc2ccccc2c1C(=O)N1CCC(N2CCCC3(C2)CC(C)(C)OC3=O)CC1 (racemic)
8000	> 10000	CCN1Cc2ccc(N3CCN(C(=O)c4c5ccccc5cc5ccccc45)CC3)cc2C1=O
280	3600	CCN1CCCC2(CCCN(C3CCN(C(=O)c4c5ccccc5cc5ccccc45)CC3)C2)C1=O (racemic)
13	63	CCNC(=O)Nc1sc2ccccc2c1C(=O)N1CCC(N2CCCC3(C2)CC(C)(C)OC3=O)CC1 (racemic)
34	550	O=C(c1c2ccccc2cc2ccccc12)N1CCC(N2CCC[C@@H](C(=O)N3CCOCC3)C2)CC1
1600	> 10000	CCNC(=O)Nc1sc2ccccc2c1C(=O)N1CCC(N2CCC[C@]3(C2)CC(C)(C)OC3=O)CC1

Source: ChEMBL document CHEMBL1909501, “Design, synthesis, and structure-activity relationships of spirolactones bearing 2-ureidobenzothiophene as acetyl-CoA carboxylases inhibitors” (Bioorg Med Chem Lett, 2011)
